In patent US7901707B2, “Biodegradable biocompatible implant and method of manufacturing same” (priority 2005, dated 2011):
≈ marks a conversion by molar mass, not a printed value.

Assays:
ovarian cancer cells = assay: MTT assay, combination of PTX and CPT; assay type: cell-based; conditions: 48 hour
Procedure: (§1) Briefly, cells were diluted with culture medium to the seeding density (10^5 cells/mL) and suspended in 96-well tissue culture plates (100 μL/well), and preincubated at 37° C. overnight. Cells were then treated continuously with 10 μL of various concentrations of the anticancer agents to obtain a dose-response curve for each agent. For combination assays, cells were also treated continuously with a total of with 10 μL of various concentrations of PTX and CPT. Each drug concentration was as follows: 6.25-200 ng/mL PTX and 1-50 μg/mL CPT.
(§2) After incubation of 24, 48 and 72 h, 10 μL of MTT solution (5 mg/mL of PBS, filtered) was added to each well and the plates were further incubated for 4 h. 100 μL of extraction buffer (20% w/v SDS dissolved at 37° C. in a solution of 50% Dimethylformamide/50% H2O, 2.5% of 80% Acetic acid 2.5% of 1N HCl (ph 4.7)) was added to solubilize the MTT-formazan product. Absorbance at 570 nm was measured with a microplate reader (SPECTRAmax® PLUS384, Molecular Devices, Sunnyvale Calif.—U.S.A.). Dose response curves were plotted as a percentage of the control cell number, which was obtained from the no-drug exposure sample.

SKOV3 cells = assay: Cell proliferation assay (MTT), sustained exposure; assay type: cell-based, human
Procedure: as §1
as §2, with “sample. A semilog scale was used when necessary: IC50 of CPT for SKOV3 and CAOV3.” for “sample.”

SKOV-3 cells = assay: In-vitro cytotoxicity of implant, implant containing PTX and free PTX (MTT); assay type: cell-based, human
Procedure: In-vitro cytoxicity of the implant, implant containing PTX and free PTX. The SKOV-3 cells were plated in 6-well plates and cultured in RPMI 1640 supplemented with 1% penicillin/streptomycin solution and 10% fetal bovine serum. The cell line was grown at 37° C. in a humidified incubator equilibrated with 5% CO2. Medium was replaced three times a week and cells were typsinised and subcultured every five days. […] Likewise, PoLi implants of varying sizes were added to the wells. The implants were swelled in 70% ethanol for sterilization purposes prior to incubation with cells. Following a 48 hour incubation period the cell viability was measured using the MTT assay. The MTT dye was added to each well following the specific time period and incubated for 2 hours at 37° C. Cells were then solubilized in 10% SDS. Formazan dye concentrations were then detected using a microplate reader (BioRad) at […] wavelength of 570 nm.

In the case of `CC(=O)O[C@H]1C(=O)[C@@]2(C)[C@H]([C@H](OC(=O)c3ccccc3)[C@]3(O)C[C@H](OC(=O)[C@H](O)[C@@H](NC(=O)c4ccccc4)c4ccccc4)C(C)=C1C3(C)C)[C@]1(OC(C)=O)CO[C@@H]1C[C@@H]2O` [PTX, paclitaxel], the IC50 (ovarian cancer cells; PTX alone) is reported as > 0.2 µg/mL, the “decrease in IC50, 24 versus 72 hour time point” value (SKOV3 cells) is reported as 10 fold and the reduction in cells (SKOV-3 cells; 0.050 μg of free PTX, 48 hours) is reported as 64%. It also gave a cell reduction (SKOV-3 cells; 0.2 μg of free PTX, 48 hours) of 73% and an IC50 (SKOV-3 cells; Homo sapiens, SK-OV-3, 48 hours of incubation) of 0.0347 µg/mL (≈ 0.0406 µM).
In the case of `N.N.O=C([O-])C1(C(=O)[O-])CCC1.[Pt+2]` [CPT, carboplatin], the “CPT IC50” value (ovarian cancer cells; CPT alone) is reported as 35 µg/mL.
